Source: publication PMC7193450 (Asian Journal of Pharmaceutical Sciences, 2018)
Values belong to the molecule of their own block, whether it stands above or below them.

Columns and labels:
rat kidney slices = experiment: In vitro uptake in rat kidney slices; assay type: in vitro ADME; conditions: for Uptake in rat kidney slices at 37 °C compared with 4 °C: 100 µM; for Effect on the uptake of cilastatin in rat kidney slices / Effect on the uptake of imipenem in rat kidney slices: inhibitor 200 µM; for Effect on the uptake of cilastatin in rat kidney slices: cilastatin 100 µM; for Effect on the uptake of imipenem in rat kidney slices: imipenem 100 µM
human OAT3 (hOAT3) = molecular target: T1, human OAT3 (hOAT3) (Homo sapiens, UniProt Q8TCC7); experiment: In vitro transporter uptake assay in hOAT3-HEK293 cells; assay type: in vitro ADME; conditions: for Uptake in hOAT3-HEK293 cells compared with mock cells: 100 µM
T1 sequence (Q8TCC7 1-542): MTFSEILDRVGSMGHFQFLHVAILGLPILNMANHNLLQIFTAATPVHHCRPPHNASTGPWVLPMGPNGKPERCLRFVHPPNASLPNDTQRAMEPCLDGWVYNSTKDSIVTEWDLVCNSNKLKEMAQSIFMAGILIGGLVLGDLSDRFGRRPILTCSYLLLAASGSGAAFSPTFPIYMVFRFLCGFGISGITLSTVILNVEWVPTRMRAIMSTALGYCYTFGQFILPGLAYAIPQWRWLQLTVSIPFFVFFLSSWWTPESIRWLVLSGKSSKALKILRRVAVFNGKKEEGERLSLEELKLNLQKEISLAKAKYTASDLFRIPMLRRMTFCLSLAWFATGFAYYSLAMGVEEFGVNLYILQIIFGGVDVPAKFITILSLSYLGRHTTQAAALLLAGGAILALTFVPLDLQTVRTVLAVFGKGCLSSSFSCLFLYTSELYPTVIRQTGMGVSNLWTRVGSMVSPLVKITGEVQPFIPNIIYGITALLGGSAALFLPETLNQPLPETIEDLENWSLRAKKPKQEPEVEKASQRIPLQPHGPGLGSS

[1] = Pharmacokinetic interaction in vivo in rats; conditions: rat; for AUC(0-inf) / C0 / clearance / half-life: Wistar, plasma, iv; for AUC(0-inf) / C0 / clearance / half-life / Cumulative urinary excretion over 8 h, compared with alone group: 45 mg/kg; for AUC(0-inf): AUC0→∞; for clearance: CLP; for half-life: T1/2β; for Cumulative urinary excretion over 8 h, compared with alone group: with probenecid 100 mg/kg
OAT3 = molecular target: T2, OAT3 (Homo sapiens, UniProt Q8TCC7); experiment: In vitro transporter uptake assay in hOAT3-HEK293 cells; assay type: in vitro ADME; conditions: human, HEK293 cells transfected with human OAT3 (hOAT3-HEK293), pH 7.4
T2 sequence (Q8TCC7 1-542): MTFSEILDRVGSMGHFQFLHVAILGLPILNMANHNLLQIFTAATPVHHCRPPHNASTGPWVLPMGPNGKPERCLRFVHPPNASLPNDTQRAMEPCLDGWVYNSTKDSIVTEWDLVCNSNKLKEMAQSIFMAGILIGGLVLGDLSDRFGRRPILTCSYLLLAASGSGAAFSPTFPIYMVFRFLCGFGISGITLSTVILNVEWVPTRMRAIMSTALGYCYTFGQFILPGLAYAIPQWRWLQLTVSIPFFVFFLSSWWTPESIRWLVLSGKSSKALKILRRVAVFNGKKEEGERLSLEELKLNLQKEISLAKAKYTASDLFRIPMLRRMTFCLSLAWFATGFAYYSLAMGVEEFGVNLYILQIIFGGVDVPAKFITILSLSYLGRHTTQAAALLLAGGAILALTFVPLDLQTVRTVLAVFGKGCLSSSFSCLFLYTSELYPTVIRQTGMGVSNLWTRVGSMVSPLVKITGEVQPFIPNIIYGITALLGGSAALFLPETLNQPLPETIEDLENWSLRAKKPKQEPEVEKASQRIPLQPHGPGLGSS

OAT1 = molecular target: T3, OAT1 (Homo sapiens, UniProt Q4U2R8); experiment: In vitro transporter uptake assay in hOAT1-HEK293 cells; conditions: human, pH 7.4
T3 sequence (Q4U2R8 1-563): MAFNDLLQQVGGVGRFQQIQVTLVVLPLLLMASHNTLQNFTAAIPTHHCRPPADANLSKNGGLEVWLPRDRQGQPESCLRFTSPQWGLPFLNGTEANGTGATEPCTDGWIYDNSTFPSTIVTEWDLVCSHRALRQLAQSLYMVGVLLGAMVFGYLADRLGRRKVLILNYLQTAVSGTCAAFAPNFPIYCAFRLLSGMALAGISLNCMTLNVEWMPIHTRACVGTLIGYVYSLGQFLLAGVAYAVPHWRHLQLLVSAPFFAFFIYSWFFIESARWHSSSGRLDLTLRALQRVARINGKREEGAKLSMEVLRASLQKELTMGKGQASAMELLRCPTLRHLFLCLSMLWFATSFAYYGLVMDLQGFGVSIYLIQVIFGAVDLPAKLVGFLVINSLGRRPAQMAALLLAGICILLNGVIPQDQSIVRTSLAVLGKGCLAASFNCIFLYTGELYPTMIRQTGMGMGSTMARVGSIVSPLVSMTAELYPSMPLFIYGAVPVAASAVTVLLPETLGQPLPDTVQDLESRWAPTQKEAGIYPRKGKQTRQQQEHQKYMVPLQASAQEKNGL

human OAT1 (hOAT1) = molecular target: T4, human OAT1 (hOAT1) (Homo sapiens, UniProt Q4U2R8); experiment: as above
T4 sequence (Q4U2R8 1-563): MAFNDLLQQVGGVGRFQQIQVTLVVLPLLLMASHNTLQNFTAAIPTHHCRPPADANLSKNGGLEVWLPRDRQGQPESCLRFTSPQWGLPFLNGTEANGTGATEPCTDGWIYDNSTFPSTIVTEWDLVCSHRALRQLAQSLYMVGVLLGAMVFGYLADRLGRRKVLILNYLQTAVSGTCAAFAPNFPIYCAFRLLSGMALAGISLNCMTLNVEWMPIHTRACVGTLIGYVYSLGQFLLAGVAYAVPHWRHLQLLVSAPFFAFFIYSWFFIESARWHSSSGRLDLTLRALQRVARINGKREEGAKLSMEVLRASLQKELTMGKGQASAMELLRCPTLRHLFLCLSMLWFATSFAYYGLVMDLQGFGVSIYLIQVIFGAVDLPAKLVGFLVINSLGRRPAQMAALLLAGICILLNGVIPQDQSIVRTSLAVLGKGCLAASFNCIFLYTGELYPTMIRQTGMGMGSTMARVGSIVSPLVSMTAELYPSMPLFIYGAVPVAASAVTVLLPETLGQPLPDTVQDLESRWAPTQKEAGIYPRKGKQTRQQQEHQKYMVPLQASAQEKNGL

[2] = substrate: CC1(C)C[C@@H]1C(=O)N/C(=C\CCCCSC[C@H](N)C(=O)O)C(=O)O; experiment: cells, lysate or membranes named; conditions: other: hOAT3-HEK293 cells, alone, 1 min uptake, 0–2000 µM; pH 7.4; 37.0 °C
[3] = of cilastatin, i.v., cilastatin + imipenem, 45 mg/kg for both
[4] = C0, rat, single administration (alone)
[5] = imipenem 100 µM, cilastatin 0–2000 µM, Eadie–Hofstee plot
[6] = of imipenem, i.v., imipenem + cilastatin, 45 mg/kg for both

- Uptake in rat kidney slices at 37 °C compared with 4 °C (rat kidney slices): significantly higher
- Uptake in hOAT3-HEK293 cells compared with mock cells (human OAT3 (hOAT3)): significantly higher
- AUC(0-inf) [1, 3]: 84700 ng·h/mL
- AUC(0-inf) ([1]; single administration (alone)): 56500 ng·h/mL
- C0 ([1]; C0, of cilastatin, i.v., cilastatin + imipenem, 45 mg/kg for both): 175 ± 11.1 µg/mL
- C0 [1, 4]: 156 ± 3.6 µg/mL
- clearance [1, 3]: 8.9 ± 0.3 mL/min/kg
- clearance ([1]; single administration (alone)): 13.3 ± 0.1 mL/min/kg
- half-life [1, 3]: 28.6 ± 4 min
- half-life ([1]; single administration (alone)): 19.7 ± 0.8 min
- Cumulative urinary excretion over 8 h, compared with alone group ([1]; i.v.): significantly decreased
- Cumulative urinary excretion of cilastatin, compared with cilastatin alone group ([1]; i.v., co-administered with imipenem, 45 mg/kg for both): decreased significantly
Molecule: CC1(C)C[C@@H]1C(=O)N/C(=C\CCCCSC[C@H](N)C(=O)O)C(=O)O [Cilastatin]

- Uptake in rat kidney slices at 37 °C compared with 4 °C (rat kidney slices): significantly higher
- Km at 1 min (OAT3): 759 ± 62 µM
- Uptake in hOAT3-HEK293 cells compared with mock cells (human OAT3 (hOAT3)): significantly higher
- Vmax (human OAT3 (hOAT3); hOAT3, alone): 0.329 ± 0.036 nmol/mg protein/min
- Vmax (human OAT3 (hOAT3); hOAT3-HEK293 cells, alone, 1 min uptake, 0–2000 µM): 0.329 ± 0.036 nmol/mg protein/1 min
- Inhibitory type on the uptake of cilastatin in hOAT3-HEK293 cells (human OAT3 (hOAT3); [5]): competitive
- Km at 1 min (OAT1): 631 ± 30 µM
- Uptake in hOAT1-HEK293 cells compared with mock cells (human OAT1 (hOAT1); 100 µM): significantly higher
- Vmax (human OAT1 (hOAT1); hOAT1, alone): 0.223 ± 0.011 nmol/mg protein/min
- Vmax (human OAT1 (hOAT1); hOAT1-HEK293 cells, alone, 1 min uptake, 0–2000 µM): 0.223 ± 0.011 nmol/mg protein/1 min
- Inhibitory type on the uptake of cilastatin in hOAT1-HEK293 cells (human OAT1 (hOAT1); [5]): competitive
- AUC(0-inf) [1, 6]: 92400 ng·h/mL
- AUC(0-inf) ([1]; single administration (alone)): 34800 ng·h/mL
- C0 ([1]; C0, of imipenem, i.v., imipenem + cilastatin, 45 mg/kg for both): 187 ± 13.5 µg/mL
- C0 [1, 4]: 129 ± 2.6 µg/mL
- clearance [1, 6]: 8.1 ± 0.4 mL/min/kg
- clearance ([1]; single administration (alone)): 21.6 ± 0.4 mL/min/kg
- half-life [1, 6]: 62 ± 1.4 min
- half-life ([1]; single administration (alone)): 18.5 ± 2.8 min
- Cumulative urinary excretion over 8 h, compared with alone group ([1]; i.v.): significantly decreased
Molecule: C[C@@H](O)[C@H]1C(=O)N2C(C(=O)O)=C(SCCN=CN)C[C@H]12 [Imipenem]

Molecule: Nc1ccc(C(=O)NCC(=O)O)cc1 [PAH, p-aminohippurate]
- Effect on the uptake of cilastatin in rat kidney slices (rat kidney slices): inhibited
- Effect on the uptake of imipenem in rat kidney slices (rat kidney slices): inhibited

- Effect on uptake of imipenem and cilastatin in hOAT3-HEK293 cells (human OAT3 (hOAT3); PCG 200 µM, imipenem 100 µM, cilastatin 100 µM): significantly inhibited
Molecule: CC1(C)S[C@@H]2[C@H](NC(=O)Cc3ccccc3)C(=O)N2[C@H]1C(=O)O [PCG, benzylpenicillin]
- Effect on the uptake of cilastatin in rat kidney slices (rat kidney slices): inhibited
- Effect on the uptake of imipenem in rat kidney slices (rat kidney slices): inhibited

Molecule: CC[N+](CC)(CC)CC [TEA, tetraethyl ammonium]
- Effect on the uptake of cilastatin in rat kidney slices (rat kidney slices): not TEA inhibited
- Effect on the uptake of imipenem in rat kidney slices (rat kidney slices): not TEA inhibited

Molecule: CCCN(CCC)S(=O)(=O)c1ccc(C(=O)O)cc1 [probenecid, Probenecid]
- Effect on the uptake of cilastatin in rat kidney slices (rat kidney slices): inhibited
- Effect on the uptake of imipenem in rat kidney slices (rat kidney slices): inhibited

B1: human OAT3 (hOAT3) (Homo sapiens) (protein)
chain: MTFSEILDRVGSMGHFQFLHVAILGLPILNMANHNLLQIFTAATPVHHCRPPHNASTGPWVLPMGPNGKPERCLRFVHPPNASLPNDTQRAMEPCLDGWVYNSTKDSIVTEWDLVCNSNKLKEMAQSIFMAGILIGGLVLGDLSDRFGRRPILTCSYLLLAASGSGAAFSPTFPIYMVFRFLCGFGISGITLSTVILNVEWVPTRMRAIMSTALGYCYTFGQFILPGLAYAIPQWRWLQLTVSIPFFVFFLSSWWTPESIRWLVLSGKSSKALKILRRVAVFNGKKEEGERLSLEELKLNLQKEISLAKAKYTASDLFRIPMLRRMTFCLSLAWFATGFAYYSLAMGVEEFGVNLYILQIIFGGVDVPAKFITILSLSYLGRHTTQAAALLLAGGAILALTFVPLDLQTVRTVLAVFGKGCLSSSFSCLFLYTSELYPTVIRQTGMGVSNLWTRVGSMVSPLVKITGEVQPFIPNIIYGITALLGGSAALFLPETLNQPLPETIEDLENWSLRAKKPKQEPEVEKASQRIPLQPHGPGLGSS
- Km [2]: 238 ± 2 µM
- Vmax [2]: 0.000751 µmol/min/mg
